pKi: −log10 of the molar value. Several values for one entry are separate records, joined by “and”; a condition that tells them apart may be missing. Identical values can stand only once. Like-named read-outs stand apart in the source and are kept apart here.
What was measured:
[1] = tested on: Leishmania donovani amastigote infected mouse peritoneal macrophages; assay: In vitro antiprotozoal activity, Leishmania donovani; assay type: cell-based; parameters: key to percentage inhibition, L. donovani: the term "T" indicates the molecule to have displayed cytotoxicity
Procedure: In this table, the in vitro antiprotozoal activities of the indicated compounds were measured as percentage inhibition of Leishmania donovani amastigote infecteda mouse peritoneal macrophages, Trypanosoma cruzi amastigote infected macrophages, and Trypanosoma brucei extracellular bloodstream forms.

[2] = tested on: U87MG; assay: Matrigel barrier migration assay, U87MG; assay type: cell-based, human; parameters: dose or concentration left out as unconfirmed
Procedure: (§1) Two permanent human glioma cell lines (U87MG and U251MGn) and a well characterized low passage primary culture derived from a CB-positive glioblastoma (HF66) were used to assess the migratory behavior in the Matrigel barrier migration assay in the presence of graded concentrations of four compounds.
(§2) Using the Matrigel assay, Mu-Leu-HphVSPh, Mu-Tyr-HphVSPh, Mu-Phe-HphVSPh, and Mu-Tyr(I2)-HphVSPh (all at 10 mM) inhibited U251MGn by 67, 56, 29, & 20% respectively, while the U87MG cells were inhibited 53, 75, 63, & 56% respectively. The primary culture HF66 cells were inhibited only 10% by these compounds at the same concentration.

[3] = molecular target: T1, Cathepsin L from rat liver (Rattus norvegicus, UniProt P07154); assay: Inhibition of cathepsin L, Z-Phe-Arg-AMC fluorescence progress curves; assay type: biochemical; settings: for pKi: corrected for substrate; for kobs /[I]* (approximate second-order inactivation constant): values marked *; for kobs /[I]* (approximate second-order inactivation constant) / k/KI (kirr/KI): 25° C., pH 6.2; for k/KI (kirr/KI): values without asterisk
T1 construct: Cathepsin L from rat liver; from tissue; host or cells: rat liver
T1 sequence (P07154 114-288 limits assumed): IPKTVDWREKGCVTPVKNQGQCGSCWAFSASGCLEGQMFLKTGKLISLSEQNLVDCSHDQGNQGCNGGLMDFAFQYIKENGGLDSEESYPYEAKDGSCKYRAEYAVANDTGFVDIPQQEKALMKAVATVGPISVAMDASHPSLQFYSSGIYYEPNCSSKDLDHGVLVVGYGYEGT
T1 sequence (P07154 291-334 limits assumed): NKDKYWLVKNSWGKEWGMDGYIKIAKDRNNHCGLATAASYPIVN
Procedure, shortened: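 Progress curves of AMC release (380/460 nm) over at least 3 inactivation half-times were fitted to kobs, reported as kobs/[I] or, via 1/[I] vs 1/kobs, kirr, KI (substrate-corrected) and kirr/KI.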

[4] = tested on: mouse malarial parasite Plasmodium vinckei; assay: In vitro protease activity of malarial parasite, substrate Z-Phe-Arg-AMC; assay type: biochemical; settings: cells printed in nM; read-out: P. vinckei IC50 (murine)
Description: (§3) The following table summarizes the comparative IC50 values for selected cysteine protease inhibitors against the human malarial parasite Plasmodium falciparum and the mouse malarial parasite Plasmodium vinckei. The substrate used to measure in vitro protease activity was Z-Phe-Arg-AMC.

[5] = tested on: human malarial parasite Plasmodium falciparum; assay: as above; assay type: biochemical; settings: cells printed in nM; read-out: P. falciparum IC50 (human)
Description: as §3

[6] = molecular target: T2, Cathepsin B from human placenta (Homo sapiens, UniProt P07858); assay: Inhibition of cathepsin B, Z-Arg-Arg-AMC fluorescence progress curves; assay type: biochemical; settings: for k/KI (kirr/KI): values without asterisk, 25° C., pH 6.2
T2 construct: Cathepsin B from human placenta, obtained from Sigma; purchased Sigma; host or cells: human placenta (tissue)
Procedure, shortened: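 Human placental enzyme (~10 nM) in 50 mM phosphate pH 6.2 with 2.5 mM DTT and 2.5 mM EDTA, 50 μM Z-Arg-Arg-AMC, inhibitors 30-0.001 μM, 25° C. AMC fluorescence (ex 380/em 460 nm) progress curves fitted for kobs; kobs/[I] reported, with kirr, KI and kirr/KI substrate-corrected for selected compounds.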

[7] = tested on: U251MGn; assay: Matrigel barrier migration assay, U251MGn; assay type: cell-based, human; parameters: dose or concentration left out as unconfirmed
Procedure: as §1, §2

[8] = molecular target: cruzain, from T. cruzi (Trypanosoma cruzi, UniProt P25779); assay: Inhibition of cruzain, as for cathepsin L; assay type: biochemical; settings: for k/KI (kirr/KI): values without asterisk
Chain of cruzain, from T. cruzi (P25779 123-337 limits assumed): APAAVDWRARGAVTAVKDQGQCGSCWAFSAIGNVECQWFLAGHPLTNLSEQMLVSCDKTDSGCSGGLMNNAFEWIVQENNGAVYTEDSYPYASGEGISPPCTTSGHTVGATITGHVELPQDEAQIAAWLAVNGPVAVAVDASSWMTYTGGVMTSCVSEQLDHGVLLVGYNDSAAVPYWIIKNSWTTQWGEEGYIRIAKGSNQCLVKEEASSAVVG
Procedure, shortened: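 Run as for cathepsin L with 1 nM cruzain in 50 mM phosphate pH […], 2.5 mM DTT, 2.5 mM EDTA, 5 μM Z-Phe-Arg-AMC, at 25 °C, inhibitors 30-0.001 μM; fluorescence (ex 380/em 460 nm) followed continuously. kobs fitted from progress curves and kobs/[I] reported; selected compounds gave kirr, KI, kirr/KI, with KI corrected by (1+[S]/Km).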

Compound | percentage inhibition, L. donovani ([1]; 3 uM) [%] | percentage inhibition, L. donovani ([1]; 10 uM) [%] | percentage inhibition, L. donovani ([1]; 30 uM) [%] | percentage inhibition, L. donovani ([1]; 90 uM) | inhibition of U87MG migration [2] [%] | kirr [3] [s⁻¹] | pKi [3] | kobs /[I]* (approximate second-order inactivation constant) [3] | k/KI (kirr/KI) [3] | IC50 [4] [nM] | IC50 [5] [nM] | k/KI (kirr/KI) [6] | inhibition of U251MGn migration [7] [%] | pKi [8] | kirr [8] [s⁻¹] | k/KI (kirr/KI) [8] | other results
CC(C)C[C@H](NC(=O)N1CCOCC1)C(=O)N[C@H](/C=C/S(=O)(=O)c1ccccc1)CCc1ccccc1 [Mu-Leu-HphVSPh, (S)-(E)-3-(4-morpholinecarbonylleucyl)amino-5-phenyl-1-phenylsulfonyl-1-pentene] | 4.6 | 0 | 15.3 | T | 53 | 0.40 | 6.09 | 28,700 M^-1 sec^-1 | 490,000 M^-1 sec^-1 | 200 | 3 | 4250 M⁻¹ s⁻¹ | 67 | 6.28 | 0.11 | 213,000 M^-1 sec^-1 | 
O=C(N[C@H](/C=C/S(=O)(=O)c1ccccc1)CCc1ccccc1)C(Cc1ccccc1)NC(=O)N1CCOCC1 (stereo partly drawn) [Mu-Phe-HphVSPh, (S)-(E)-3-(4-morpholinecarbonyl-phenylalanyl)amino-5-phenyl-1-phenylsulfonyl-1-pentene] | 0 | 0 | 9.4 | T | 63 | 0.24 | 6.00 | 260,000 M^-1 sec^-1 | 224,000 M^-1 sec^-1 | 50 | 80 | 16,400 M^-1 sec^-1 | 29 | 5.49 | 0.43 | 134,000 M^-1 sec^-1 | pKi ([3]; listed as Mu-Phe-Hph-VSPh): 5.96; kirr ([3]; listed as Mu-Phe-Hph-VSPh): 0.23 s⁻¹; k/KI (kirr/KI) ([3]; listed as Mu-Phe-Hph-VSPh): 201,000 M^-1 sec^-1; kirr [6]: 0.17 s⁻¹; pKi ([6]; corrected for substrate): 4.96; kirr ([6]; listed as Mu-Phe-Hph-VSPh): 0.061 s⁻¹ and 0.12 s⁻¹

From US6287840A (Axys Pharmaceuticals, Inc., priority 1999, dated 2001)
